{"source": "patent US20050228019A1", "about": "“Enhancement of ampakine-Induced facilitation of synaptic responses by cholinesterase inhibitors” (priority 2004, published 2005)", "key": {"[1]": {"tested_on": "lateral perforant path EPSPs in hippocampal slices", "test": "Lateral perforant path EPSPs in hippocampal slices", "format": "cell-based, Sprague-Dawley rats", "procedure": "Hippocamlpal slice preparation: Hippocampal slices were prepared from male Sprague-Dawley rats, approximately 4-6 weeks of age. Rats were anesthetized with halothane and then sacrificed via decapitation. The brain was quickly removed and placed in icy, oxygenated artificial cerebrospinal fluid (ACSF) of the following composition for dissection (in mM): 124 NaCl, 3 KCl 1.25 KH2PO4, 5 MgSO4, 3.4 CaCl2, 10 D-glucose, 26 NaHCO3. A tissue block containing the hippocampus and surrounding tissue was prepared and glued to the stage of a vibrating tissue slicer (Leica VT1000; Bannockburn, Ill.). Slices were cut roughly perpendicular to the longitudinal axis of the hippocampus at a thickness of 350 μm. Slices were then immediately transferred to an interface recording chamber containing ACSF with the same constituents as described above except that the concentration of MgSO4 was lowered to 2.5 mM. Recording commenced after a recovery period that was ≧1 hour.\nIn vitro recording: Slices in the interface chamber were maintained at 32±1° C. and continuously perfused with oxygenated recording ACSF at a rate of 60 ml/hr. Additionally, warmed and humidified 95% O2/5% CO2 was blown into the chamber from above. The lateral perforant path was stimulated with twisted nichrome wire (65 μm) in the outer molecular layer of the dentate gyrus. A chloride-coated silver wire was placed in a single glass pipette filled with 2 M NaCl (˜5 MΩ resistance) for recording of field potentials. The recording electrode was also placed in the outer molecular layer of the dentate gyrus to sample the perforant path synapses. Stimulation intensity was adjusted to elicit responses that were typically 1-2 mV in amplitude and ≦50% of the maximal monophasic response. Evoked responses were recorded at 10 kHz using a differential AC amplifier (A-M Systems Model 1700; Carlsborg, Wash.). Baseline responses were monitored every 20 seconds for a minimum of 30 minutes, depending on the length of time necessary to achieve stability.\nDrug application: AChE inhibitors enhance transmission at cholinergic synapses by blocking the enzyme that degrades the released transmitter acetylcholine. This causes acetylcholine to remain at relatively high concentrations for a longer period within the synapse and thereby exert a greater than normal effect on acetylcholine receptors. This greater than normal action on acetylcholine receptors can be partially mimicked by applying a compound that directly stimulates the receptors to a degree that is greater than that produced by normally released acetylcholine. […] The effect of each of these treatments on amplitude size and slope of the descending phase of the response waveform was continuously recorded online throughout the entirety of the experiment."}, "[2]": {"tested_on": "perforant path evoked responses in the dentate gyrus", "test": "Perforant path evoked responses in the dentate gyrus of awake rats", "format": "in vivo, Long-Evans rats", "procedure": "(§1) Chronic recording preparation: Adult male Long-Evans rats with recording and stimulating electrodes chronically implanted into different areas of the brain known to subserve memory were used. The electrodes were stereotaxically inserted under pentobarbital anesthesia (65 mg/kg), using procedures essentially as described in earlier work (Stäubli and Xu, Journal of Neuroscience 15: 2445-2452, 1995; Stäubli and Scafidi, Journal of Neuroscience 17: 4820-4828, 1997). Briefly, monopolar stimulating electrodes (125 μm) were placed into the perforant path projections to hippocampal dentate gyrus and into the lateral olfactory tract projections to olfactory cortex. Following these steps, the leads of the electrodes were connected to a headstage that is permanently affixed to the rat's skull.\n(§2) The animals were allowed approximately 10 days for recovery before being acclimated to a chronic recording cage (30×30×58 cm) and the attachment of a recording lead to their headstage. Biphasic stimulation pulses were provided by a digital stimulator that allows precise control of current intensity and pulse duration. […] The evoked responses were monitored on a storage oscilloscope and digitized at 10 kHz. The peak amplitude, half-width and area of each response were measured on-line and stored on disk for off-line analysis. […]"}, "[3]": {"tested_on": "lateral olfactory tract (LOT) evoked responses", "test": "Lateral olfactory tract (LOT) evoked responses in awake rats", "format": "in vivo, Long-Evans rats", "procedure": "as §1\nThe animals were allowed approximately 10 days for recovery before being acclimated to a chronic recording cage (30×30×58 cm) and the attachment of a recording lead to their headstage. Biphasic stimulation pulses were provided by a digital stimulator that allows precise control of current intensity and pulse duration. Current intensity (10-80 μA) and pulse width (100-150 μsec) were adjusted to produce an evoked field excitatory postsynaptic potential (evoked fEPSP) that is 50-60% of the maximum amplitude of the population spike-free response which typically ranges between 3 and 7 mV. Recording signals were pre-amplified 10× via a FET operational amplifier built into the recording lead and fed into a second stage amplifier set to a gain of 10, with a band-pass of 1 Hz to 5 kHz. The evoked responses were monitored on a storage oscilloscope and digitized at 10 kHz. The peak amplitude, half-width and area of each response were measured on-line and stored on disk for off-line analysis. Baseline evoked EPSPs were tested at 20 sec intervals for a minimum of 30 to 45 min, or until stable (<10% variability in amplitude). The animal was free to move around the cage throughout the experiment, but was not allowed to fall asleep.\nDrug Testing: Once baseline stability was established over at least 30 min, the animal was given an intraperitoneal injection of 1) Ampakine compound alone (e.g., CX717 at 10 mg/kg), or 2) acetylcholinesterase (AChE) inhibitor alone (e.g., physostigmine at 0.1 mg/kg, tacrin at 1 mg/kg, galantamine at 1 mg/kg or donezepil at 1.5 mg/kg) or 3) Ampakine compound plus AChE inhibitor combined, both administered at the same time and at the same dose as when given alone. Each rat received each of these three treatments, but only one treatment was given per day, with several days separating successive treatments. The effect of each of these treatments on amplitude size, halfwidth and area of the field EPSP was continuously recorded for several hours after injection."}, "[4]": {"tested_on": "monosynaptic responses (field EPSPs) known to be mediated by AMPA receptors", "test": "Chronic recording of evoked field EPSPs in freely moving rats (brain area not specified)", "format": "in vivo, Long-Evans rats", "conditions": "CX717 10 mg/kg ip alone", "procedure": "as §1, §2"}, "[5]": {"conditions": "CX717 10 mg/kg co-administered ip with physostigmine 0.1 mg/kg"}}, "note": "Values joined by “and” are separate entries in the source; they are usually repeats but may differ in a detail not shown here. Equal values may be shown once. “Also recorded” adds a separate entry of the source.", "data": [{"smiles": "C[N+](C)(C)CCOC(N)=O", "note": "[CCh, carbachol]", "values": [{"measurement": "EPSP amplitude", "setting": "[1]; CCh 0.5 μM alone, 20-30 minutes after the start of infusion", "result": "99.8±2.9 % of baseline"}, {"measurement": "effect on lateral perforant path EPSPs (amplitude or slope)", "setting": "[1]; CCh 0.5 μM by itself", "result": "no discernible effects; also recorded: did not detectably affect synaptic transmission; also recorded: did not affect the amplitude or slope of evoked responses"}]}, {"smiles": "O=C(c1ccc2nonc2c1)N1CCOCC1", "note": "[CX717]", "values": [{"measurement": "response amplitude", "setting": "[1]; CX717 40 μM alone, 30 min infusion, last 10 minutes of drug infusion", "result": "103.5±1.0 % of baseline"}, {"measurement": "increase in response size relative to CX717 alone", "setting": "[1]; CX717 40 μM in the presence of 0.5 μM CCh", "result": "several fold greater; also recorded: significantly greater than those observed in the absence of CCh"}, {"measurement": "perforant path effect relative to CX717 alone", "setting": "[2]; CX717 10 mg/kg co-injected ip with physostigmine 0.1 mg/kg", "result": "significantly higher than the effects of CX717 alone"}, {"measurement": "increase in perforant path evoked responses on co-administration", "setting": "[2]; CX717 with galantamine 1 mg/kg, data not shown", "result": "Effects of this kind were also obtained"}, {"measurement": "LOT effect relative to CX717 alone", "setting": "[3]; [5]", "result": "several times greater than the effects it produced on its own; also recorded: approximately three-fold greater"}, {"measurement": "increase in LOT response amplitude above baseline", "setting": "[3]; [5]", "result": "20-30%"}, {"measurement": "LOT effect relative to CX717 alone", "setting": "[3]; CX717 10 mg/kg co-injected ip with Aricept 1.5 mg/kg", "result": "several times greater than the effects it produced on its own; also recorded: approximately two-fold greater"}, {"measurement": "LOT effect relative to CX717 alone", "setting": "[3]; CX717 10 mg/kg co-injected ip with tacrine 1 mg/kg", "result": "several times greater than the effects it produced on its own; also recorded: more than two times greater"}, {"measurement": "increase in LOT response amplitude", "setting": "[3]; CX717 10 mg/kg ip alone, 10 mg/kg", "result": "~5% and < 10%"}, {"measurement": "increase in amplitude of field EPSP", "setting": "[4]", "result": "5+1%"}]}]}
